# Assay results reported in patent publication US8445501B2, “Substituted 7-carboxamido-pyrrolo[3,2-d]pyrimidines” (Takeda GmbH, priority 2008, dated 2013).
# Molecular target: T1, human PDE5 (Homo sapiens, UniProt O76074)
# T1 construct: from tissue; host or cells: platelets from fresh blood of human donors (lysate, 10,000 g supernatant)
# Assay: Inhibition of the type 5 phosphodiesterase (PDE5) activity, modified SPA test with platelet lysate
# Assay type: biochemical
# Conditions: PDE5 from human platelet lysate, 0.5 μM cGMP
# Protocol: Method for Measuring Inhibition of the Type 5 Phosphodiesterase (PDE5) Activity:
# As a source for human PDE5, platelets are used. For that purpose, 150 ml fresh blood from human donors anticoagulated with citrate [final concentration 0.3% (w/v)] is centrifuged at 200 g for 10 min to obtain the so-called platelet-rich-plasma (PRP) as a supernatant. 1/10 volume of ACD solution (85 mM Na3-citrate, 111 mM D-glucose, 71 mM citric acid, pH 4.4) is added to 9/10 volume of PRP. After centrifugation (1,400 g, 10 min) the cell pellet is resuspended in 3 ml homogenization buffer (NaCl 140 mM, KCl 3.8 mM, EGTA (ethylene glycol tetraacetic acid) 1 mM, MgCl2 1 mM, Tris-HCl 20 mM, beta-mercaptoethanol 1 mM, pH 8.2) plus protease-inhibitor mix giving rise to the final concentrations of 0.5 mM Pefablock (Roche), 10 μM Leupeptin, 5 μM Trypsininhibitor, 2 mM Benzamidin and 10 μM Pepstatin A. The suspension is sonified and thereafter centrifuged for 15 min at 10,000 g. The resulting supernatant (platelet lysate) is used for enzymatic testings.
# PDE5A1 activity is inhibited by the compounds of the invention in a modified SPA (scintillation proximity assay) test, supplied by Amersham Biosciences (see procedural instructions “phosphodiesterase [3H]cAMP SPA enzyme assay, code TRKQ 7090”), carried out in 96-well microtitre plates (MTP's). The test volume is 100 μl and contains 20 mM Tris buffer (pH 7.4), 0.1 mg of BSA (bovine serum albumin)/ml, 5 mM Mg^2+, 1 μM motapizone, 10 nM PDE2 inhibitor 2-(3,4-dimethoxybenzyl)-7-[(1R,2R)-2-hydroxy-1-(2-phenylethyl)propyl]-5-methylimidazo[5,1-f][1,2,4]triazin-4(3H)-one, 0.5 μM cGMP (cyclic guanosine monophosphate) (including about 50,000 cpm of [3H]cGMP as a tracer), 1 μl of the respective compound dilution in dimethylsulfoxide (DMSO) and sufficient PDE5-containing platelet lysat (10,000×g supernatant, see above) to ensure that 10-20 wt % of the cGMP is converted under the said experimental conditions. […] After a preincubation of 5 min at 37° C., the reaction is started by adding the substrate (cGMP) and the assay is incubated for a further 15 min; after that, it is stopped by adding SPA beads (50 μl). In accordance with the manufacturer's instructions, the SPA beads had previously been resuspended in water, but are then diluted 1:3 (v/v) in water; the diluted solution also contains 3 mM […] (IBMX) to ensure a complete PDE activity stop. After the beads have been sedimented (>30 min), the MTP's are analyzed in commercially available luminescence detection de-vices. The corresponding IC50 values of the compounds for the inhibition of PDE activity are deter-mined from the concentration-effect curves by means of non-linear regression.
row,SMILES,IC50
1,"O=CN1CCC(NC(=O)c2c[nH]c3c(-c4c(OCC5CC5)ccc5c4OCO5)ncnc23)CC1 [Example 43, 4-(5-Cyclopropylmethoxy-benzo[1,3]dioxol-4-yl)-5H-pyrrolo[3,2-d]pyrimidine-7-carboxylic acid (1-formyl-piperidin-4-yl)-amide]",0.282 nM
2,"CCC(=O)N1CCC[C@H](NC(=O)c2c[nH]c3c(-c4c(OCC5CC5)ccc5c4OCO5)ncnc23)C1 [Example 44, 4-(5-Cyclopropylmethoxy-benzo[1,3]dioxol-4-yl)-5H-pyrrolo[3,2-d]pyrimidine-7-carboxylic acid ((S)-1-propionyl-piperidin-3-yl)-amide]",0.794 nM
3,"COCC(=O)N1CCC[C@H](NC(=O)c2c[nH]c3c(-c4c(OCC5CC5)ccc5c4OCO5)ncnc23)C1 [Example 45, 4-(5-Cyclopropylmethoxy-benzo[1,3]dioxol-4-yl)-5H-pyrrolo[3,2-d]pyrimidine-7-carboxylic acid [(S)-1-(2-methoxy-ethanoyl)-piperidin-3-yl]amide]",1.55 nM
4,"CC(=O)N1CCC[C@H](NC(=O)c2c[nH]c3c(-c4c(OCC5CC5)ccc5c4OCO5)ncnc23)C1 [Example 46, 4-(5-Cyclopropylmethoxy-benzo[1,3]dioxol-4-yl)-5H-pyrrolo[3,2-d]pyrimidine-7-carboxylic acid ((S)-1-acetyl-piperidin-3-yl)-amide]",1.38 nM
5,"COCC(=O)N1CCC[C@@H](NC(=O)c2c[nH]c3c(-c4c(OCC5CC5)ccc5c4OCO5)ncnc23)C1 [Example 48, 4-(5-Cyclopropylmethoxy-benzo[1,3]dioxol-4-yl)-5H-pyrrolo[3,2-d]pyrimidine-7-carboxylic acid [(R)-1-(2-methoxy-ethanoyl)-piperidin-3-yl]amide]",0.427 nM
6,"CC(=O)N1CCC[C@@H](NC(=O)c2c[nH]c3c(-c4c(OCC5CC5)ccc5c4OCO5)ncnc23)C1 [Example 49, 4-(5-Cyclopropylmethoxy-benzo[1,3]dioxol-4-yl)-5H-pyrrolo[3,2-d]pyrimidine-7-carboxylic acid ((R)-1-acetyl-piperidin-3-yl)-amide]",0.339 nM
7,"COCC(=O)N[C@H]1CC[C@H](NC(=O)c2c[nH]c3c(-c4c(OCC5CC5)ccc5c4OCO5)ncnc23)CC1 [Example 50, trans-4-(5-Cyclopropylmethoxy-benzo[1,3]dioxol-4-yl)-5H-pyrrolo[3,2-d]pyrimidine-7-carboxylic acid [4-(2-methoxy-acetylamino)-cyclohexyl]-amide]",0.141 nM
8,"COc1ccc(-c2ncnc3c(C(=O)N[C@H]4CC[C@H](NC(C)=O)CC4)c[nH]c23)c(OCC2CC2)c1 [Example 51, trans-4-(2-Cyclopropylmethoxy-4-methoxy-phenyl)-5H-pyrrolo[3,2-d]pyrimidine-7-carboxylic acid (4-acetylamino-cyclohexyl)-amide]",0.49 nM
9,"COc1ccc(-c2ncnc3c(C(=O)N[C@H]4CC[C@H](NC(=O)C5CC5)CC4)c[nH]c23)c(OCC2CC2)c1 [Example 52, trans-4-(2-Cyclopropylmethoxy-4-methoxy-phenyl)-5H-pyrrolo[3,2-d]pyrimidine-7-carboxylic acid [4-(cyclopropanecarbonyl-amino)cyclohexyl]-amide]",0.302 nM
10,"COCC(=O)N[C@H]1CC[C@H](NC(=O)c2c[nH]c3c(-c4ccc(OC)cc4OCC4CC4)ncnc23)CC1 [Example 53, trans-4-(2-Cyclopropylmethoxy-4-methoxy-phenyl)-5H-pyrrolo[3,2-d]pyrimidine-7-carboxylic acid [4-(2-methoxy-acetylamino)-cyclohexyl]-amide]",0.372 nM
11,"CCOC(=O)N[C@H]1CC[C@H](NC(=O)c2c[nH]c3c(-c4ccc(OC)cc4OCC4CC4)ncnc23)CC1 [Example 54, trans-(4-{[4-(2-Cyclopropylmethoxy-4-methoxy-phenyl)-5H-pyrrolo[3,2-d]pyrimidine-7-carbonyl]-amino}-cyclohexyl)-carbamic acid ethyl ester]",0.417 nM
